Molecules are shown by their SMILES.

The results in this text go back to US20140161720A1, “TREATMENT OF ANGIOGENIC- OR VASCULAR-ASSOCIATED DISEASES” (THE GENERAL HOSPITAL CORPORATION, priority 2011, published 2014).

One assay deals with MDA-MB-231 cells. Description: High-throughput cell adhesion screen (cells remaining attached). The format is cell-based, human. As to conditions: FIG. 1C. As for the experimental part: A cell-based readout system was used for compound selection. For the cell-based screening, an optimal cell density of 10,000 breast cancer MDA-MB-231 cells/well was selected to produce the most prominent signal. The plated cells were incubated with each library compound, washed with PBS, and the Cell Titer-Glo (Promega) reagent was used to detect the number of cells remaining attached in each well. This ATP-based detection has a linear relationship between the luminescent signal and the number of cells per well. Of the 50,000 compounds screened, 86 library compounds (0.172% of screened compounds) were selected at 1.67 μM concentration for the second screening step. […] As a further test of toxicity, DAL was injected intraperitoneally at 100 mg/kg in SCID mice and signs of toxicity including cachexia, ruffled fur, diarrhea, anorexia, skin ulceration, and toxic death were monitored.
A screening strategy was developed to identify potential agents that target adhesion of endothelial cells or cancer cells to their substrate. […] The initial screening step quantified the number of cells remaining attached to their wells following incubation with each compound and subsequent washing steps. […] The agents that affect cell adhesion can be monitored through remodeling of actin filaments. […] Changes in actin assembly and cell shape after treatment with 12 compounds were determined. […]

In a further assay the target is EPHB2 (Homo sapiens, UniProt P29323). Description: Kinase inhibition screening. The format is biochemical. As to conditions: 10-dose, starting at 100 μM, 1 μM ATP. As for the experimental part:
(§1) To determine kinase activity of DAL, various kinases (AKT1, AKT2, AKT3, PKA, PKC alpha, PKC delta, PAK1, EPHB2, EPHB4, p38 alpha, PI3K-alpha, PI3K-beta, PI3K-gamma, PI3K-delta) were screened in a 10-dose IC50 mode with threefold serial dilutions starting at 100 μM. Staurosporine was used as a control starting at 10 μM and the reactions were carried out at 1 μM ATP.
(§2) Without wishing to be bound by theory, DAL brings about its antivascular effects by destabilizing cell adhesion through the actin cytoskeleton. It was next sought to identify which specific adhesion pathway it targets. Mechanical attachment at cell-cell adherens and tight junctions is regulated by dynamic changes in the actin cytoskeleton. Adherens junctions are composed of E-cadherin/β-catenin complexes and are connected to the actin cytoskeleton via sa-catenin (25-26), while tight junctions consist of transmembrane claudins and occludin and are associated with the actin cytoskeleton via ZO proteins (27-28). Therefore, potential targets of DAL in signaling pathways involved in actin remodeling were evaluated. […] Then, it was sought to determine whether Rho-GTPase family members are targets for DAL due to the disruption of cell adhesion and actin network remodeling along with inhibited motility. Rho-GTPases (e.g., Rac1) plays an important role in actin cytoskeletal organization and is involved in the coordination of cell adhesion (29). Furthermore, Rac1 is responsible for stabilizing endothelial cell junctions by opposing actin remodeling by Rho (30). In order to migrate, cancer cells employ dynamic remodeling of the actin cytoskeleton, form protrusive structures and generate forces necessary to produce cell translocation in the process regulated by Rho-GTPase Rac1. To assess whether DAL can modulate Rac1, RhoA, and Cdc42 activities, affinity purification assays were employed to monitor RhoA and Cdc42/Rac1 activity. The Rho-Binding Domain (RBD) of the Rho effector protein rhotekin and the p21 Binding Domain (PBD) of the Cdc42/Rac effector protein p21 activated kinase 1 (PAK) were applied to pull down active forms of each protein.

Another assay has as its target PI3K-gamma (Homo sapiens, UniProt P48736). Kind of assay: Kinase inhibition screening. The format is biochemical. As to conditions: 10-dose, starting at 100 μM, 1 μM ATP. On the procedure:
as §1, §2

The target of a further assay is PAK1 (Homo sapiens, UniProt Q13153). Description: Kinase inhibition screening. Particulars: 10-dose, starting at 100 μM, 1 μM ATP. Type of assay: biochemical. As for the experimental part:
as §1, §2

In assay [1] the test system is orthotopic E0771 mammary tumors. Description: Tumor growth delay study, E0771. The format is in vivo, female SCID mice. As to conditions: start ~100 mm^3, 37.5 mg/kg daily i.p. As for the experimental part:
To assess the anti-tumor effects of DAL, female SCID mice bearing orthotopic 4T1 or E0771 mammary tumors were treated with daily i.p. injections of 37.5 mg/kg DAL or saline. In order to calculate tumor volumes, the major and minor axis diameters were measured with calipers and the tumor volume was calculated by assuming a spherical shape based on the average of these two dimensions. The tumors were implanted in the mammary fat pad and allowed to grow to a starting size (small ˜100 mm^3 tumors for E0771, large ˜200 mm^3 tumors for 4T1) over ˜2 weeks. To ensure that tumors in the two groups were of similar growth rates, the treatment with saline or DAL was begun in pairs of tumors with similar sizes and growth times. Tumor volumes were measured every other day until the tumors reached an average of ˜10 mm in diameter. Tumor growth was quantified with the doubling rate, and calculated by fitting an exponential growth curve to the data for tumor size versus time.
As shown in Example 3, DAL has an antivascular effect in orthotopic mammary tumors in mice. Thus, the antitumor effect of DAL was next assessed. […] The effect of DAL on the growth of orthotopic 4T1 and E0771 mammary tumors with daily treatment of DAL or saline was evaluated (FIG. 4A). 37.5 mg/kg of DAL was used for these experiments based on the pharmacokinetics results as well as in vitro and in vivo data. […]

Chain of PI3K-gamma (P48736 whole entry, species assumed): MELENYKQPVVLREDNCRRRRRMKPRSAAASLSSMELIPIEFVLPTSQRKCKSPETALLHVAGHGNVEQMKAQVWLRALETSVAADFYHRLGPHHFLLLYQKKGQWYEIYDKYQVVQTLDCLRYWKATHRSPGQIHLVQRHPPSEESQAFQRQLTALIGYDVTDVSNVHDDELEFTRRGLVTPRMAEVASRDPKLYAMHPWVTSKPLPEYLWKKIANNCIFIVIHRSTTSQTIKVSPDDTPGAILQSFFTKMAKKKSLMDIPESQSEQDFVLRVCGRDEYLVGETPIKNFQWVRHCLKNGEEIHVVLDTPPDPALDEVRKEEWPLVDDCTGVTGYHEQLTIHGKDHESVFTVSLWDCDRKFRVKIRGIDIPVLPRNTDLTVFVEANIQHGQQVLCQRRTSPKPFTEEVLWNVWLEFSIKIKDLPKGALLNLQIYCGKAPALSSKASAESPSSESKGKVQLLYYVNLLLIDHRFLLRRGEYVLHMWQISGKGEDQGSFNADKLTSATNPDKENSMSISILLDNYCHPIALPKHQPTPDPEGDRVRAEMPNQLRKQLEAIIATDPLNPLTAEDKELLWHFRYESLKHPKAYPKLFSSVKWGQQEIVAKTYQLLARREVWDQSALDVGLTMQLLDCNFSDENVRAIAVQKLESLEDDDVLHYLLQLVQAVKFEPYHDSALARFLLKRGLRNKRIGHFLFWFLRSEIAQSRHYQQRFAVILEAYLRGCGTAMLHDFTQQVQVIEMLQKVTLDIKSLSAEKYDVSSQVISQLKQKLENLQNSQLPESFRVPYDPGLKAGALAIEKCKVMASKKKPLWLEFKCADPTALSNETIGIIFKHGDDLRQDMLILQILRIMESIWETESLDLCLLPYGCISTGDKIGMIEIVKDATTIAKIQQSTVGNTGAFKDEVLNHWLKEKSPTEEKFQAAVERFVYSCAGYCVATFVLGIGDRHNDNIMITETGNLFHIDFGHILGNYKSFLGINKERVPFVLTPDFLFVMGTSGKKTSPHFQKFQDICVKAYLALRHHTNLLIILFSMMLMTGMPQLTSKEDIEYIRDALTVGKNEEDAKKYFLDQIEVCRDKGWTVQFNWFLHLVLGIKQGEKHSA
Chain of PAK1 (Q13153 whole entry): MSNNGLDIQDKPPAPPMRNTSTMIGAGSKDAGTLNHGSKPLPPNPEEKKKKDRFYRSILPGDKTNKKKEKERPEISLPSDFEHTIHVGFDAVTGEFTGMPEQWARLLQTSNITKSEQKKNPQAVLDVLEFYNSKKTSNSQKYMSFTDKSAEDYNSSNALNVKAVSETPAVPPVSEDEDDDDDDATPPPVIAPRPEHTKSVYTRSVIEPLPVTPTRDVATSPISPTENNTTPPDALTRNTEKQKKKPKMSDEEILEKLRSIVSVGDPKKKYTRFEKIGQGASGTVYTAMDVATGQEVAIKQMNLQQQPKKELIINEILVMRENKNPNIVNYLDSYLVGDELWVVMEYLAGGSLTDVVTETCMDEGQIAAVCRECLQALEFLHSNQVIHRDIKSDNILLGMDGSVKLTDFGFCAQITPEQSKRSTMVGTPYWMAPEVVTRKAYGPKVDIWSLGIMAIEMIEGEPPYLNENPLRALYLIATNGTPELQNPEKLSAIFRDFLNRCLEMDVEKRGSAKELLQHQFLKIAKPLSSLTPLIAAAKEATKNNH
Chain of EPHB2 (P29323 19-1055, species assumed): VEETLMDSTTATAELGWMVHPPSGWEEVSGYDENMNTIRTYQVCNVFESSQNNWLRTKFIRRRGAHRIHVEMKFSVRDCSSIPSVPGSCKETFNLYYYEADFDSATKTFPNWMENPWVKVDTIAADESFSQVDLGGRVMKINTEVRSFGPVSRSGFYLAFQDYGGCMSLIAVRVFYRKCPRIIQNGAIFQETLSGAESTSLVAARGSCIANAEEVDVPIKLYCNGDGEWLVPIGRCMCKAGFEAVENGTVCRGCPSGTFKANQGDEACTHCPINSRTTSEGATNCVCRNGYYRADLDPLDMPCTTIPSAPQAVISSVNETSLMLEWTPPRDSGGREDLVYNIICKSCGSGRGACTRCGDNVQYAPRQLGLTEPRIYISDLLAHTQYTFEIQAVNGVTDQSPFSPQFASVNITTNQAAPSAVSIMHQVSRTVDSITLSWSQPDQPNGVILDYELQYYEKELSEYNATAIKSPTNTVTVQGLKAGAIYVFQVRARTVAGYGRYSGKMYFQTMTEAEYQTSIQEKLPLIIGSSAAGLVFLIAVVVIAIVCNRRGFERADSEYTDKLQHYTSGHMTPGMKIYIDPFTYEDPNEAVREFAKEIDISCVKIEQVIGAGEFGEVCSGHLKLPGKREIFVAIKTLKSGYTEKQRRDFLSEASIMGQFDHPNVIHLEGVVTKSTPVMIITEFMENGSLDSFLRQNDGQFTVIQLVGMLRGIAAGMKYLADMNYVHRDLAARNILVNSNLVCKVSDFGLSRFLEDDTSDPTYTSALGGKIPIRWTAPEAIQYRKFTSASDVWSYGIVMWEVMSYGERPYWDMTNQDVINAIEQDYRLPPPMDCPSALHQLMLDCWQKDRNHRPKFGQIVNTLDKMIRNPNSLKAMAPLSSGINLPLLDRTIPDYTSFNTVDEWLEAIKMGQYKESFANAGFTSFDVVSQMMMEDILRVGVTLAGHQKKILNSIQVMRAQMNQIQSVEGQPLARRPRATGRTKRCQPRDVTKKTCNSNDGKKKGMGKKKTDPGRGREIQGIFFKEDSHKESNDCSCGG

In the case of `CC1(C)C=CC2=C(O1)C(=O)c1ccccc1C2=O` [DAL, dehydro-alpha-lapachone], the cell adhesion properties result in the assay on MDA-MB-231 cells was “lost their adhesion properties”. The “effect on kinase EPHB2” value at EPHB2 is listed as “no significant effects”. The “effect on kinase PI3K-gamma” value at PI3K-gamma is listed as “no significant effects”. For the same compound, the “effect on kinase PAK1” value at PAK1 is “no significant effects”. For the same compound, the “tumor volume doubling time” value in assay [1] was 4.77 ± 0.58 days.
